Experimental data from patent US8188078B2 (Sanofi-Aventis, priority 2007, dated 2012).

Key:
MET = molecular target: T1, MET (Homo sapiens, UniProt P08581); test: Test C: inhibition of the autophosphorylation of MET, ELISA technique (pppY1230, 1234, 1235), MKN45 cells; assay type: cell-based
T1 construct: endogenous in cells; host or cells: MKN45 cells
Protocol: C) Inhibition of the Autophosphorylation of MET; ELISA Technique (pppY1230, 1234, 1235)
a) Cellular lysates: Sow the MKN45 cells in a 96-well plate (Cell coat BD polylysine) at 20 000 cells/well under 200 μl of medium RPMI+10% FCS+1% L-glutamine. Leave to adhere to the incubator for 24 h.
The cells are treated on the day after sowing with the products at 6 concentrations in duplicate for 1 h. At least 3 control wells are treated with the same amount of final DMSO.
Dilution of the products: Stock at 10 mM in pure DMSO—range from 10 mM to 30 μM with steps of 3 of pure DMSO—Intermediate dilutions to 1/50 in culture medium then taking of 10 μl added directly to the cells (200 μl): final range from 10000 to 30 nM.
At the end of incubation, carefully remove the supernatant and rinse with 200 μl of PBS. Then put 100 μl of lysis buffer directly in the wells on ice and incubate at 4° C. for 30 minutes. Lysis buffer: 10 mM Tris, HCl pH7.4, 100 mM NaCl, 1 mM EDTA, 1 mM EGTA, 1% Triton X-100, 10% glycerol, 0.1% SDS, 0.5% deoxycholate, 20 mM NaF, 2 mM Na3VO4, 1 mM PMSF and antiprotease cocktail.
The 100 μl of lysates are transferred to a V-bottomed polypropylene plate and ELISA is performed next or the plate is frozen at −80° C.
b) ELISA PhosphoMET BioSource Kit KH00281
In each well of the plate from the kit, add 70 μl of dilution buffer from the kit+30 μL of cell lysate or 30 μl of lysis buffer for the blank. Incubate for 2 h at room temperature, stirring gently.
Rinse the wells 4 times with 400 μl of washing buffer from the kit. Incubate with 100 μl of anti-phospho MET antibodies for 1 h at room temperature.
Rinse the wells 4 times with 400 μl of washing buffer from the kit. Incubate with 100 μl of anti-rabbit HRP antibodies for 30 minutes at room temperature (except for the wells with chromogen only).
Rinse the wells 4 times with 400 μl of washing buffer from the kit. Add 100 μL of chromogen and incubate for 30 minutes in the dark at room temperature.
Stop the reaction with 100 μl of stop solution. Read at once at […] 0.1 second in the Wallac Victor plate reader.
The products of formula (I) as defined above show cellular activity in this test between 10 nM and 10 μM.

MKN45 cells = test: Test D: cellular proliferation by 14C-thymidine pulse, MKN45 cells; assay type: cell-based; conditions: Homo sapiens, MKN-45, cellular proliferation by 14C-thymidine pulse; cell line not stated (HCT116 or MKN45)
Protocol: D) Measurement of Cellular Proliferation by 14C-Thymidine Pulse
The cells are sown in Cytostar 96-well plates under 180 μl for 4 hours at 37° C. and 5% CO2: The HCT116 cells at a rate of 2500 cells per well in DMEM medium+10% foetal calf serum+1% of L-glutamine and the MKN45 cells at a rate of 7500 cells per well in RPMI medium+10% foetal calf serum+1% of L-glutamine. After said incubation for 4 hours, the products are added under 10 μl in 20-times concentrated solution according to the method of dilution stated for ELISA. The products are tested at 10 concentrations in duplicate from 10000 nM to 0.3 nM in steps of 3.
After treatment for 72 h, add 10 μl of 14C-thymidine at 10 μCi/ml to obtain 0.1 μCi per well. The incorporation of 14C-thymidine is measured on a Micro-Beta (Perkin-Elmer) after 24 hours of pulse and 96 h of treatment.
All the stages of the test are automated on the BIOMEK 2000 or TECAN stations.

c-MET = molecular target: T2, c-MET (Homo sapiens, UniProt P08581); test: Test A: HTRF Met test in 96-well format; assay type: biochemical
T2 construct: The recombinant DNA His-Tev-MET (956-1390) in pFastBac(Invitrogen); His (N, cleaved yes); Tev (TEV protease site) (N, cleaved yes); made in house; host or cells: SF21 insect cells (baculovirus, pFastBac)
Protocol: I) Expression and Purification of MET, Cytoplasmic Domain
The recombinant DNA His-Tev-MET (956-1390) in pFastBac(Invitrogen) is transfected in insect cells and after several stages of viral amplification, the final stock of baculovirus is tested for expression of the protein of interest.
After infection for 72 h at 27° C. with the recombinant virus, the SF21 cell cultures are harvested by centrifugation and the cellular deposits are stored at −80° C.
The cellular deposits are resuspended in the lysis buffer (buffer A [50 mM HEPES, pH 7.5, 250 mM NaCl, Glycerol 10%, TECP 1 mM]; +cocktail of protease inhibitors Roche Diagnostics without EDTA, ref 1873580), stirred at 4° C. until homogeneous, then lysed mechanically using apparatus of the “Dounce” type.
After centrifugation, the lysis supernatant is incubated for 2 h at 4° C. with Nickel Chelate resin (His-Trap 6 Fast Flow™, GE HealthCare). After washing with 20 volumes of Tp A, the suspension is packed in a column, and the proteins are eluted with a gradient of buffer B ([…]+290 mM imidazole).
The fractions containing the protein of interest with a view to electrophoretic analysis (SDS PAGE) are collected, concentrated by ultrafiltration (cut-off 10 kDa) and injected in an exclusion chromatography column (Superdex™ 200, GE HealthCare) equilibrated with buffer A.
After enzymatic cleavage of the tag Histidine, the protein is reinjected in a new IMAC Nickel Chelate chromatography column (His-Trap 6 Fast Flow™, GE HealthCare) equilibrated with Buffer A. The fractions eluted with a gradient of buffer B and containing the protein of interest after electrophoresis (SDS PAGE), are finally collected and stored at −80° C.
For the production of autophosphorylated protein, the preceding fractions are incubated for 1 h at room temperature after adding ATP 2 mM, MgCl2 2 mM, and Na3VO4 4 mM. After stopping the reaction with 5 mM of EDTA, the reaction mixture is injected in a HiPrep desalting column (GE HealthCare) equilibrated beforehand with buffer A+Na3VO4 4 mM; the fractions containing the protein of interest (SDS PAGE analysis) are collected and stored at −80° C. The degree of phosphorylation is verified by mass spectrometry (LC-MS), and by peptide mapping.
A) HTRF Met test in 96-well format
In a final volume of 50 μl of enzymatic reaction mixture, final c-MET 5 nM is incubated in the presence of the molecule to be tested (for a final concentration range from 0.17 nM to 10 μM, final DMSO 3%) in buffer MOPS 10 mM pH 7.4, DTT 1 mM, Tween 20 0.01%. The reaction is initiated by the substrate solution to obtain the final concentrations of poly-(GAT) 1 μg/ml, ATP 10 μM and MgCl2 5 mM. After incubation for 10 min at room temperature, the reaction is stopped with a mix of 30 μl to obtain a final solution of Hepes 50 mM pH 7.5, potassium fluoride 500 mM, BSA 0.1% and EDTA 133 mM in the presence of 80 ng Streptavidin 61SAXLB Cis-Bio Int. and 18 ng anti-phosphotyrosine Mab PT66-Europium Cryptate per well. After 2 hours of incubation at room temperature, reading is carried out at 2 wavelengths 620 nm and 665 nm in a reader for the TRACE/HTRF technique and the percentage inhibition is calculated according to the 665/620 ratios.

T2 sequence (P08581 956-1390): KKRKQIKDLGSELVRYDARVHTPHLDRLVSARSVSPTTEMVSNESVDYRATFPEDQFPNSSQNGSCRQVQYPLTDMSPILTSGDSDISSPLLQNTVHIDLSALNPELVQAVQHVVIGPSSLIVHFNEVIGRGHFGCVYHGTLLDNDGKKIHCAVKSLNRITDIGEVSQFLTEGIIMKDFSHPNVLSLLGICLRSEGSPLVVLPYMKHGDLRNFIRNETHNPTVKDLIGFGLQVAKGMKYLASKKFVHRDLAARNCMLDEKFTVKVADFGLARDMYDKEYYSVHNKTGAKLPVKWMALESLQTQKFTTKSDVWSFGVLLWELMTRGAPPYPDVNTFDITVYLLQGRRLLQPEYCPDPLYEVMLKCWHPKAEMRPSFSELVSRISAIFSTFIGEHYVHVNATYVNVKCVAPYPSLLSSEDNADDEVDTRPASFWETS
T1 sequence (P08581 25-1390): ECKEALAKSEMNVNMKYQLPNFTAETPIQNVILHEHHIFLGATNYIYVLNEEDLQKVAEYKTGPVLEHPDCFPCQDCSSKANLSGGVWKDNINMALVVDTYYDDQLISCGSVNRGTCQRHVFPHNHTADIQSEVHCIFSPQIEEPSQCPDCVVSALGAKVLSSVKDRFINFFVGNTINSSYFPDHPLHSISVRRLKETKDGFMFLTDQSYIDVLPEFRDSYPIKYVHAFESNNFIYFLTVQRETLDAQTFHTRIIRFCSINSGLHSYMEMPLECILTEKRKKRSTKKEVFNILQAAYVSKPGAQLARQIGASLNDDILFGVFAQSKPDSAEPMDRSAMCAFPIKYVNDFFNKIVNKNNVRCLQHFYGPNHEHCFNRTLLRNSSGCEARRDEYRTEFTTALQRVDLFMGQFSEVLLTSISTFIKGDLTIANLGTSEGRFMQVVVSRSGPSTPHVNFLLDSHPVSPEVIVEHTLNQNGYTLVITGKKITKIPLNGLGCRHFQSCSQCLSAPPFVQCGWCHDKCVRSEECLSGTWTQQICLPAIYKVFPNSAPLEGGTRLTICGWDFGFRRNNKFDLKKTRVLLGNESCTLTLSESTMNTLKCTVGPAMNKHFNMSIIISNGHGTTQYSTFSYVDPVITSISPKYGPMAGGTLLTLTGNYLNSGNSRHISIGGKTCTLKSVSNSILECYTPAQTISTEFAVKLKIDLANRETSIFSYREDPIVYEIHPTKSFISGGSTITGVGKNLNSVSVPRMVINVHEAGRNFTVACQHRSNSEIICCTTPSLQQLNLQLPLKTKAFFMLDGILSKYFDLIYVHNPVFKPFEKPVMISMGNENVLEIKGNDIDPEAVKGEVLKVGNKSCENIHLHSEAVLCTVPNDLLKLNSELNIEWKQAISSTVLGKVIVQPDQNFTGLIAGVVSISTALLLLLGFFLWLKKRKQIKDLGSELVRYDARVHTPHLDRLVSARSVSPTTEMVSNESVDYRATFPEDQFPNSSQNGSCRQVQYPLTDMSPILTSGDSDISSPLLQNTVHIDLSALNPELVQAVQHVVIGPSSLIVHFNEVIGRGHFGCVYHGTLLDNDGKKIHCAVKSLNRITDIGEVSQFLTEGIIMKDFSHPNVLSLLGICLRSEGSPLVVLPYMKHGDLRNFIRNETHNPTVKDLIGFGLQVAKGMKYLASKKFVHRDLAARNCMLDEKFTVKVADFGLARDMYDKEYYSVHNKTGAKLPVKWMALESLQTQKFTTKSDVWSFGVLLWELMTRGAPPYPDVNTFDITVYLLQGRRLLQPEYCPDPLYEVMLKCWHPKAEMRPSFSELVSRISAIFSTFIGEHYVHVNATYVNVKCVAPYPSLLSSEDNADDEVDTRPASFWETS

| Compound | IC50 (MET) [nM] | melting point [°C] | IC50 (MKN45 cells) [nM] | IC50 (c-MET) [nM] |
| --- | --- | --- | --- | --- |
| CC(Oc1ccc2nc(NC(=O)NCCN3CCOCC3)sc2c1)c1c(F)ccc(Cl)c1F (stereo not drawn) [Example 63, 1-{6-[1-(3-chloro-2,6-difluorophenyl)ethoxy]-1,3-benzothiazol-2-yl}-3-(2-morpholin-4-ylethyl)urea] | 500 to 10000 | 154 | > 10000 | 100 to 10000 |
| Nc1nc2ccc(OCc3c(F)cccc3Cl)cc2s1 [Example 8, 6-[(2-chloro-6-fluorobenzyl)oxy]-1,3-benzothiazol-2-amine] |  | 175 | > 10000 | 100 to 10000 |
| O=C(Nc1nc2ccc(OCc3c(Cl)cccc3Cl)cc2s1)C1CC1 [Example 9, N-{6-[(2,6-dichlorobenzyl)oxy]-1,3-benzothiazol-2-yl}cyclopropane carboxamide] |  | 178 | < 500 | < 100 |
| CC(Oc1ccc2nc(N)sc2c1)c1c(Cl)ccc(F)c1Cl (stereo not drawn) [Example 23, 6-[1-(2,6-dichloro-3-fluorophenyl)ethoxy]-1,3-benzothiazol-2-amine] |  | 186 to 194 | > 10000 | 100 to 10000 |
| O=C(NCCN1CCOCC1)Nc1nc2ccc(OCc3cc(Cl)nc(Cl)c3)cc2s1 [Example 16, 1-{6-[(2,6-dichloropyridin-4-yl)methoxy]-1,3-benzothiazol-2-yl}-3-(2-morpholin-4-ylethyl)urea] |  | 193 | > 10000 | 100 to 10000 |
| O=C(Nc1nc2cc(F)c(OCc3c(Cl)cccc3Cl)cc2s1)C1CC1 [Example 22, N-{6-[(2,6-dichlorobenzyl)oxy]-5-fluoro-1,3-benzothiazol-2-yl}cyclopropanecarboxamide] | 500 to 10000 | 215 | > 10000 | < 100 |
| Cc1cc2nc(NC(=O)NCCN3CCOCC3)sc2cc1OC(C)c1c(Cl)ccc(F)c1Cl (stereo not drawn) [Example 107, 1-{6-[1-(2,6-dichloro-3-fluorophenyl)ethoxy]-5-methyl-1,3-benzothiazol-2-yl}-3-[2-(morpholin-4-yl)ethyl]urea] | < 500 | 270 to 276 | 500 to 10000 | < 100 |
| CCC(Oc1ccc2nc(NC(=O)NCCN3CCOCC3)sc2c1)c1c(Cl)cccc1Cl (stereo not drawn) [Example 122, 1-{6-[1-(2,6-dichlorophenyl)propoxy]-1,3-benzothiazol-2-yl}-3-[2-(morpholin-4-yl)ethyl]urea] | 500 to 10000 | 200 | 500 to 10000 | < 100 |

More lines, now with the values ahead:

| IC50 (MET) [nM] | melting point [°C] | IC50 (MKN45 cells) [nM] | IC50 (c-MET) [nM] | Compound |
| --- | --- | --- | --- | --- |
| 500 to 10000 | 178 to 198 | 500 to 10000 | < 100 | CC(Oc1cc2sc(NC(=O)NCCn3cccc3)nc2cc1F)c1c(Cl)ccc(F)c1Cl (stereo not drawn) [Example 91, 1-{6-[1-(2,6-dichloro-3-fluorophenyl)ethoxy]-5-fluoro-1,3-benzothiazol-2-yl}-3-[2-(1H-pyrrol-1-yl)ethyl]urea] |
| 500 to 10000 | 62 to 67 | 500 to 10000 | < 100 | COCCN(C)C(=O)Nc1nc2cc(F)c(OC(C)c3c(Cl)ccc(F)c3Cl)cc2s1 (stereo not drawn) [Example 93, 3-{6-[1-(2,6-dichloro-3-fluorophenyl)ethoxy]-5-fluoro-1,3-benzothiazol-2-yl}-1-(2-methoxyethyl)-1-methylurea] |
| < 500 | 166 to 167 | 500 to 10000 | < 100 | CCOCCNC(=O)Nc1nc2cc(F)c(OC(C)c3c(Cl)ccc(F)c3Cl)cc2s1 (stereo not drawn) [Example 86, 1-{6-[1-(2,6-dichloro-3-fluorophenyl)ethoxy]-5-fluoro-1,3-benzothiazol-2-yl}-3-(2-ethoxyethyl)urea] |
| < 500 | 186 to 189 | < 500 | < 100 | CC(Oc1cc2sc(NC(=O)C3CC3)nc2cc1F)c1c(Cl)ccc(F)c1Cl (stereo not drawn) [Example 67, N-{6-[1-(2,6-dichloro-3-fluorophenyl)ethoxy]-5-fluoro-1,3-benzothiazol-2-yl}cyclopropanecarboxamide] |
| < 500 | 177 to 184 | 500 to 10000 | < 100 | CC(C)OCCNC(=O)Nc1nc2cc(F)c(OC(C)c3c(Cl)ccc(F)c3Cl)cc2s1 (stereo not drawn) [Example 92, 1-{6-[1-(2,6-dichloro-3-fluorophenyl)ethoxy]-5-fluoro-1,3-benzothiazol-2-yl}-3-(2-isopropoxyethyl)urea] |
